PMC10353061 (ACS Pharmacology & Translational Science, 2023)

Key:
HCT116 colon cancer cell = settings: cited from earlier work
MDA-MB-231 cells = experiment: Cell proliferation by live-cell imaging (IncuCyte), MDA-MB-231 TNBC cells; assay type: cell-based; settings: for effect on MDA-MB-231 cell proliferation: 40 μM, 48 and 72 h
Source text: TNBC represents approximately 10–15% of all breast cancers and is the most aggressive subtype of breast cancer. Patients with TNBC have a poor outcome compared to the other subtypes of breast cancer. In the breast cancer tissue, β-catenin is overexpressed compared to the normal tissue. The overexpression of β-catenin is associated with TNBC and lymph node metastasis. […] There is a quest for the development of new therapies to treat TNBC. […] Effects on cell proliferation of MDA-MB-231 TNBC cells were evaluated by live-time cell imaging using the Incucyte S5 system.
(§1) Figure 10 Inhibition of MDA-MB-231, HCC1806, and HCC1937 TNBC cell growth by compounds 5–10 and reference compounds 3, […], and iCRT3 at 40 μM. Cell growth inhibition was quantified using the IncuCyte cell-by-cell analysis software, by comparison with the growth of DMSO-treated cells at 72 h, set at 100% (mean ± SD, n = 3, one-way ANOVA, **p ≤ 0.01, ****p ≤ 0.0001).
(§2) Cell proliferation of breast cancer cell lines upon continuous treatment with select compounds was evaluated by the real-time quantitative live-cell imaging system. MDA-MB-231 (1500 cells/well), HCC1806 (2000 cells/well), and HCC1937 (3000 cells/well) were seeded in 96-well plates, treated with increasing doses of selected compounds and images (5 images/well) were acquired every 8 h for 3 days at 10× magnification in an IncuCyte SX5 live-content imaging system (Essen Bioscience) at 37 °C with 5% CO2. Images were analyzed using IncuCyte cell-by-cell analysis software to detect and quantify live cells (phase-contrast). The number of cells at each time point was quantified using IncuCyte cell-by-cell analysis software, and cell growth was evaluated as the normalized ratio between counted cells at each time point normalized to those counted at time 0. Graph drawing and statistical analyses were performed in GraphPad Prism according to the statistical tests described in the figure legends.

HCC1806 cells = experiment: Cell proliferation by live-cell imaging (IncuCyte), HCC1806 TNBC cells; assay type: cell-based; settings: 40 μM, 72 h
Experimental: (§3) As TNBC is a highly heterogeneous subgroup, including breast cancers with different molecular and phenotypic traits,[37] effects of compounds 5–10 on cell proliferation were also tested in additional TNBC cell lines, i.e., HCC1806 and HCC1937. As inhibitors of HCC1806 TNBC cells, compounds 5–10 were evaluated in parallel with compounds 3, ICG-001, and iCRT3 (Figures 10 and S12–S19, Supporting Information); as inhibitors of the HCC1937 TNBC cells, 5–10 were compared with 3 and iCRT3 (Figures 10, S20, and S21). Effects on cell proliferation were evaluated as above for the MDA-MB-231 TNBC cells at the latest time point of observation of 72 h.
as §1, §2

HCC1937 cells = experiment: Cell proliferation by live-cell imaging (IncuCyte), HCC1937 TNBC cells; assay type: cell-based; settings: 40 μM, 72 h
Experimental: as §3, §1, §2

[1] = tested on: Wnt/β-catenin signaling pathway; experiment: Topflash/Fopflash luciferase report assay in SW480 cells; assay type: cell-based; settings: 30 μM
Source text: (§4) We synthesized derivatives 5–10 bearing 5-membered and 6-membered heterocyclic rings at the position 3′ or 4′ of the B phenyl ring. […] SW480 cells show higher Wnt activation compared to HCT116 cells.[28] […] In SW480 cells, compounds 5–10 were in the 1.75%(10)–7.32%(7) range of residual luciferase activity, except 6(28.46%), compared to 3(21.61%); in HCT116 cells, compounds 5–10 were in the 0.37%(7)–5.88%(5) range, compared to 3 (18.75%) (Table 1 and Figure 5).
(§5) Figure 5 Residual luciferase activity (%) by compounds 5–10 and reference compound 3 in SW480 cells (left panel) and HCT116 cells (right panel). Data are represented as the mean ± SD of three independent experiments, each performed in triplicate.
(§6) Briefly, the Topflash plasmid (Beyotime, Zhejiang, China) contains 7 TCF/LEF binding sites, while the Fopflash plasmid (Beyotime, Zhejiang, China) contains 6 mutated TCF/LEF binding sites, which are located in the upstream of the luciferase reporter. SW480 and HCT116 cell lines were cultured in 90% DMEM (HyClone, #SH30243.01) plus 10% fetal bovine serum (Gibco, #10270) and plasmocin (mpp-39-03, InvivoGen), respectively. The Topflash/Fopflash vector and plasmid pTK-renilla together were co-transfected to the cells. […] The Dual-Glo luciferase assay kit (Promega, #E1910) was used to measure the luminescence intensity (Figure 2).

[2] = tested on: Wnt/β-catenin signaling pathway; experiment: Topflash/Fopflash luciferase report assay in HCT116 cells; assay type: cell-based, human; settings: 30 μM
Source text: as §4, §5, §6

SW620 cells = experiment: Inhibition of SW620 cells; assay type: cell-based; settings: Homo sapiens, SW-620, in the combination 9 at constant 0.25 μM
[3] = tested on: β-catenin/Tcf-4 interaction; experiment: Co-immunoprecipitation of β-catenin and Myc-tagged Tcf-4 in HCT116 cells; assay type: cell-based, human; settings: HCT116 transfected with Myc-tagged Tcf-4, LiCl 50 mM, 50 μM, 24 h
Experimental: Toward this end, we performed a co-immunoprecipitation study in HCT116 cells transfected with Myc-tagged Tcf-4, treated with the two compounds, and immunoprecipitated with Myc antisera.
HCT116 cells were transiently transfected with the Myc-tagged Tcf-4 plasmid and treated with LiCl (50 mM) and 9 (50 μM) or 10 (50 μM) for 24 h. Lysates were immunoprecipitated using Myc-agarose beads and western blot analysis was performed. […] Myc-agarose beads saturated with the Myc-blocking peptide before immunoprecipitation were used as a negative control.
Co-immunoprecipitation assays were performed as previously described.[16],[60] Briefly, 2 × 10^4/cm^2 HCT116 cells were seeded in a 100 mm dish and incubated overnight at 37 °C. Cells were transfected with pcDNA/Myc Tcf-4 (Addgene plasmid #16512; http://n2t.net/addgene:16512; RRID:Addgene_16512)[29] and, after overnight incubation, were starved for 8 h in a medium containing Opti-MEM (#31985070, Thermo Fisher Scientific), FBS 0.5%, pen/strep 1%, NaPyr 1%, NeAA 1%, and then co-treated with 50 mM LiCl and DMSO or 50 μM compound 9 or 50 μM compound […] for 24 h. Cells were collected at the end of the treatments and lysed in a buffer containing 0.5% Triton X-100, 0.5 mM EDTA, and 1 mM DTT. […] Chemioluminescence was detected using WesternBright ECL (#K-12045-D50, Advansta), according to the manufacturer’s protocol.

Fgf20 and Sal4 = experiment: Wnt-target gene mRNA levels (qPCR) in LiCl-treated HCT116 cells; assay type: cell-based, human; settings: HCT116, LiCl 50 mM, 24 h, 10 μM
Experimental: (§7) To this end, HCT116 cells were treated for 24 h with 50 mM LiCl and increasing concentrations (10–50–100 μM) of the two compounds.
HCT116 was treated with LiCl (50 mM) and 10 μM compound 9 or 10 for 24 h. Fgf20, Sall4 (Wnt-target genes) mRNA levels were measured by qPCR and normalized to the expression of β-actin mRNA. Results are expressed as fold change relative to the control sample and represent the mean ± SD of three independent experiments, each performed in triplicate. *p < 0.05, **p < 0.01, ***p < 0.001 as determined by ANOVA.

Myc = Myc and β-catenin expression (western blot, qPCR) in LiCl-treated HCT116 cells; assay type: cell-based, human; settings: HCT116, LiCl 50 mM, 24 h
Experimental: as §7
Figure 7 Top panels. […] Vinculin was used as a loading control. […] Bottom panels. c-Myc mRNA levels were measured by qPCR and normalized to the expression of β-actin mRNA and expressed as fold change relative to the control sample. Results represent the mean ± SD of three independent experiments, each performed in triplicate. **p < 0.01, ***p < 0.001 as determined by ANOVA.
Briefly, total proteins from the cells in each group were subjected to 12% denaturing sodium dodecyl sulfate-polyacrylamide gel electrophoresis (SDS-PAGE). The proteins were then transferred onto a poly(vinylidene fluoride) (PVDF) membrane (Millipore). […] After the membrane was fully washed, it was incubated with secondary antibodies at 37 °C for 45 min goat anti-rabbit IgG H&L (HRP) (ab97051), Abcam, MA. The membrane was washed with Tris-buffered saline/Tween-20 (TBST) 4 times at room temperature for 14 min each time. Next, the samples were exposed and imaged (Sigma-Aldrich Chemical) using the enhanced chemiluminescence (ECL) method (Pierce Biotechnology).

β-catenin = experiment: Wnt reporter assay (TOP/FOP luciferase) in LiCl-treated HCT116 cells; assay type: cell-based; settings: Homo sapiens, HCT-116, read-out: IC50, inhibition of β-catenin (luciferase reporter), LiCl 50 mM, 24 h
Experimental: Compounds 9 and 10 were assayed at increasing 10 and 100 nM and 1 μM concentrations in HCT116 cells transfected with luciferase-based vectors and treated with LiCl (50 mM). TOP TK is a well-established Wnt reporter vector containing eight sequences of Tcf/Lef binding site upstream of the timidine kinase (TK) minimal promoter, driving the expression of firefly luciferase.
Figure 6 HCT116 cells were transfected with luciferase-based vectors and treated with LiCl (50 mM) together with increasing concentrations of compound 9 or 10. Cells were harvested 24 h post-treatment and assayed for luciferase activity. Inhibitions were calculated as the luciferase/renilla ratio of the treated samples vs. the luciferase/renilla ratio of the untreated (control) samples. Data are represented as the mean ± SD of three independent experiments, each performed in triplicate. **p < 0.01, ***p < 0.001, n.s = not significant, as determined by analysis of variance (ANOVA).
Luciferase assays were performed as previously described.[58],[59] Briefly, HCT116 cells were transfected with Topflash reporter (M50 Super 8x TOPFlash, containing 8 repeats of TCF/LEF binding sites) or Fopflash reporter (M51 Super 8x FOPFlash, containing the mutated TCF/LEF binding sites) plasmids using the Dreamfect Gold Transfection Reagent (#DG80500, OZ Biosciences). […]

Row | SMILES | effect on HCC1806 cell growth (HCC1806 cells) | effect on HCC1937 cell growth (HCC1937 cells) | % Luciferase Activity SW480 (residual) [1] [%] | melting point [°C] | % Luciferase Activity HCT116 (residual) [2] [%] | also measured
1 | COC(=O)c1ccc(NS(=O)(=O)c2ccc(Br)cc2)cc1 [Compound 1] |  |  |  |  |  | IC50, HCT116 colon cancer cell growth (HCT116 colon cancer cell): submicromolar
2 | O=S(=O)(Nc1cccc(-c2ccco2)c1)c1ccc(Br)cc1 [Compound 5, 4-Bromo-N-(3-(furan-2-yl)phenyl)benzenesulfonamide] | significant inhibition | significant inhibition | 4.80 | 147 to 150 | 5.88 | effect on MDA-MB-231 cell proliferation (MDA-MB-231 cells): significant antiproliferative effects
3 | O=S(=O)(Nc1cccc(-c2ccccn2)c1)c1ccc(Cl)cc1 [Compound 7, 4-Chloro-N-(3-(pyridin-2-yl)phenyl)benzenesulfonamide] | mild inhibitory effect |  | 7.32 | 166 to 169 | 0.37 | 
4 | O=S(=O)(Nc1cccc(-c2ccccn2)c1)c1ccc(Br)cc1 [Compound 6, 4-Bromo-N-(3-(pyridin-2-yl)phenyl)benzenesulfonamide] | significant inhibition | significant inhibition | 28.46 | 175 to 177 | 5.14 | effect on MDA-MB-231 cell proliferation (MDA-MB-231 cells): significant antiproliferative effects
5 | O=c1[nH]cc(F)c(=O)[nH]1 [Compound 5-FU, 5-fluorouracil, reference compound] |  |  |  |  |  | EC50 (SW620 cells): 103 µM
6 | O=S(=O)(Nc1ccc(-c2ccco2)cc1)c1ccc(Br)cc1 [Compound 8, 4-Bromo-N-(4-(furan-2-yl)phenyl)benzenesulfonamide] | mild inhibitory effect |  | 1.82 | 163 to 166 | 5.58 | 
7 | CCOC(=O)c1ccc(NS(=O)(=O)c2ccc(Br)cc2)cc1 [Compound 3, Ethyl 4-((4-bromophenyl)sulfonamido)benzoate, reference compound] | mild efficacy | mild efficacy | 21.61 |  | 18.75 | 
8 | O=S(=O)(Nc1ccc(-c2ccccn2)cc1)c1ccc(Cl)cc1 [Compound 10, 4-Chloro-N-(4-(pyridin-2-yl)phenyl)benzenesulfonamide] |  |  | 1.75 | 180 to 182 | 4.56 | association between β-catenin and Tcf-4 (co-immunoprecipitation) [3]: completely abrogated the association; mRNA levels of Wnt-target genes Fgf20 and Sal4 (Fgf20 and Sal4): strongly inhibited; inhibition of Myc expression (Myc; 10 μM): about 2.5 fold; protein and mRNA levels of Myc (Myc; 10–50–100 μM): significant dose-dependent inhibition; β-catenin protein levels (Myc; 10–50–100 μM): reduced only at the highest dose; IC50 (β-catenin): > 1000 nM
9 | O=C1[C@H](Cc2ccc(O)cc2)N2C(=O)CCN(C(=O)NCc3ccccc3)[C@H]2CN1Cc1cccc2ccccc12 [ICG-001, reference compound] |  |  |  |  |  | reduction of MDA-MB-231 cell viability (MDA-MB-231 cells; even at the low dose of 0.49 μM): most effective compound
